According to US20130252935A1, “Monobactams” (PFIZER INC., priority 2010, published 2013):
Converted amounts (≈) assume the structure as drawn.

Tests used:
Type in all cases: cell-based
[1] = system: Pseudomonas aeruginosa UC-12120; assay: minimum inhibitory concentration (MIC) testing according to CLSI guidelines, Pseudomonas aeruginosa; settings: Pseudomonas aeruginosa, UC12120; UC-12120, wild-type, labeled as 1091-05; overnight incubation; lower of duplicate values; read-out: AB-MBT: Pseudomonas aeruginosa 1091-05: MIC (MstRcn)
Procedure: (§1) In order to assess the compounds biological activity, the in vitro anti-bacterial activity of selected compounds described in the Examples 1-69 was evaluated by minimum inhibitory concentration (MIC) testing according to Clinical and Laboratory Standards Institute (CLSI, formerly NCCLS) guidelines. See: Clinical and Laboratory Standards Institute. Methods for Dilution Antimicrobial Susceptibility Tests for Bacteria that Grow Aerobically; Approved Standard-Eighth Edition. CLSI document M7-A8 [ISBN 1-56238-689-1]. Clinical and Laboratory Standards Institute, 940 West Valley Road, Suite 1400, Wayne, Pa. 19087-1898 USA, 2006; also Clinical and Laboratory Standards Institute. Performance Standards for Antimicrobial Susceptibility Testing; Twentieth Informational Supplement. CLSI document M100-S20 [ISBN1-56238-716-2]. Clinical and Laboratory Standards Institute.
(§2) The MIC determination is a standard laboratory method for evaluating the antibacterial activity of a compound. The MIC represents the lowest drug concentration that inhibits visible growth of bacteria following overnight incubation. […] Typically, the drug concentration range is broken down into 2-fold increments (e.g. 0.06 μg/mL, 0.12 μg/mL. 0.25 μg/mL, 0.50 μg/mL, 1.0 μg/mL, etc.) and the various drug concentrations are all individually incubated overnight with approximately the same number of bacteria. The MIC is then determined by visually inspecting the drug effect at each concentration, and identifying the lowest drug concentration that has inhibited bacterial growth as compared to the drug free control. Typically, bacteria continue to grow at drug concentrations lower than the MIC and don't grow at concentrations at and above the MIC.
(§3) The MIC values described in Table 1 below were derived from assays wherein each test compound was evaluated in duplicate. In cases where the duplicate values varied by 0-2-fold, the lower of the two values was reported below. Generally speaking, if the duplicate values varied by more than 2-fold, the assay was considered non-valid and was repeated until the variation between duplicate runs was ≦2-fold. In line with the CLSI guidelines referred to above, both control organisms and reference compounds were utilized in each MIC assay to provide proper quality control. MIC values generated with these control organisms and reference compounds were required to fall within a defined range for the assay to be considered valid and be included herein. Those skilled in the art will recognize that MIC values can and do vary from experiment to experiment. Generally speaking, it should be recognized that MIC values often vary +/−2-fold from experiment to experiment. While a single MIC is reported for each compound and each microorganism, the reader should not conclude that each compound was only tested once. Several of the compounds were subjected to multiple tests. The data reported in Table 1 is reflective of the compounds relative activity and different MICs may have been generated on these occasions in light with the guidelines described above.
(§4) The following bacterial strains were used in these MIC determinations:
1) Pseudomonas aeruginosa UC-12120: Wild-type, labeled as 1091-05;

[2] = system: Klebsiella pneumoniae 1000-02; assay: minimum inhibitory concentration (MIC) testing according to CLSI guidelines, Klebsiella pneumoniae; settings: Klebsiella pneumoniae; ciprofloxacin-resistant, ESBL-expressing clinical isolate 1000-02; overnight incubation; lower of duplicate values; read-out: AB-MBT: Klebsiella pneumoniae 1000-02: MIC (MstRcnt)
Procedure: as §1, §2, §3, §4
2) Klebsiella pneumoniae: Ciprofloxacin-resistant isolate, expresses extended-spectrum beta-lactamases (ESBL), clinical isolate, labeled as 1000-02;

[3] = system: Acinetobacter baumannii/haemolyticus AB-3167; assay: minimum inhibitory concentration (MIC) testing according to CLSI guidelines, Acinetobacter; settings: Acinetobacter baumannii; multidrug-resistant clinical isolate AB-3167; overnight incubation; lower of duplicate values; read-out: AB-MBT: Acinetobacter baumanii AB-3167: MIC (MstRcnt)
Procedure: as §1, §2, §3, §4
3) Acinetobacter baumannii/haemolyticus: Multidrug-resistant clinical isolate, labeled as AB-3167.

SMILES	MIC [1] [µg/mL]	MIC [2] [µg/mL]	MIC [3] [µg/mL]
CC(C)(O/N=C(\C(=O)N[C@@H]1C(=O)N(S(=O)(=O)O)[C@@H]1CNS(=O)(=O)c1ccc(C(=O)NCc2cc(=O)c(O)cn2O)cc1)c1csc(N)n1)C(=O)O [Example 48, 2-({[(1Z)-1-(2-amino-1,3-thiazol-4-yl)-2-{[(2R,3S)-2-({[(4-{[(1,5-dihydroxy-4-oxo-1,4-dihydropyridin-2-yl)methyl]carbamoyl}phenyl)sulfonyl]amino}methyl)-4-oxo-1-sulfoazetidin-3-yl]amino}-2-oxoethylidene]amino}oxy)-2-methylpropanoic acid]	1 (≈ 1.29 µM)	1 (≈ 1.29 µM)	2 (≈ 2.59 µM)
CC(C)(O/N=C(\C(=O)N[C@@H]1C(=O)N(S(=O)(=O)[O-])[C@@H]1CNC(=O)c1cc(=O)c(O)cn1O)c1csc(N)n1)C(=O)[O-].[Na+].[Na+] [Example 11, 2-({[(1Z)-1-(2-amino-1,3-thiazol-4-yl)-2-{[(2R,3S)-2-({[(1,5-dihydroxy-4-oxo-1,4-dihydropyridin-2-yl)carbonyl]amino}methyl)-4-oxo-1-sulfoazetidin-3-yl]amino}-2-oxoethylidene]amino}oxy)-2-methylpropanoic acid, disodium salt]	0.5	0.06	1
Nc1nc(/C(=N/O[C@@H](Cc2ccccc2)C(=O)O)C(=O)N[C@@H]2C(=O)N(S(=O)(=O)O)[C@@H]2CNC(=O)NCc2cc(=O)c(O)cn2O)cs1 [Example 32, (2S)-2-({[(1Z)-1-(2-amino-1,3-thiazol-4-yl)-2-({(2R,3S)-2-[({[(1,5-dihydroxy-4-oxo-1,4-dihydropyridin-2-yl)methyl]carbamoyl}amino)methyl]-4-oxo-1-sulfoazetidin-3-yl}amino)-2-oxoethylidene]amino}oxy)-3-phenylpropanoic acid]	1 (≈ 1.44 µM)	1 (≈ 1.44 µM)	1 (≈ 1.44 µM)
CC(C)(O/N=C(\C(=O)N[C@@H]1C(=O)N(S(=O)(=O)O)[C@@H]1COC(=O)c1csc(-c2cc(=O)c(O)c[nH]2)n1)c1csc(N)n1)C(=O)O [Example 19, 2-({[(1Z)-1-(2-amino-1,3-thiazol-4-yl)-2-({(2S,3S)-2-[({[2-(5-hydroxy-4-oxo-1,4-dihydropyridin-2-yl)-1,3-thiazol-4-yl]carbonyl}oxy)methyl]-4-oxo-1-sulfoazetidin-3-yl}amino)-2-oxoethylidene]amino}oxy)-2-methylpropanoic acid]	0.5 (≈ 0.744 µM)	1 (≈ 1.49 µM)	1 (≈ 1.49 µM)
C[C@@H](NC(=O)NCc1cc(=O)c(O)cn1O)C(=O)NC[C@@H]1[C@H](NC(=O)/C(=N\OC(C)(C)C(=O)O)c2csc(N)n2)C(=O)N1S(=O)(=O)O [Example 49, 2-({[(1Z)-1-(2-amino-1,3-thiazol-4-yl)-2-{[(2R,3S)-2-{[(N-{[(1,5-dihydroxy-4-oxo-1,4-dihydropyridin-2-yl)methyl]carbamoyl}-D-alanyl)amino]methyl}-4-oxo-1-sulfoazetidin-3-yl]amino}-2-oxoethylidene]amino}oxy)-2-methylpropanoic acid]	0.5 (≈ 0.711 µM)	0.5 (≈ 0.711 µM)	0.5 (≈ 0.711 µM)
CC(C)(O/N=C(\C(=O)N[C@@H]1C(=O)N(S(=O)(=O)O)[C@@H]1CNS(=O)(=O)NCc1cc(=O)c(O)cn1O)c1csc(N)n1)C(=O)O [Example 37, 2-({[(1Z)-1-(2-amino-1,3-thiazol-4-yl)-2-{[(2R,3S)-2-{[({[(1,5-dihydroxy-4-oxo-1,4-dihydropyridin-2-yl)methyl]amino}sulfonyl)amino]methyl}-4-oxo-1-sulfoazetidin-3-yl]amino}-2-oxoethylidene]amino}oxy)-2-methylpropanoic acid]	1 (≈ 1.5 µM)	4 (≈ 5.98 µM)	2 (≈ 2.99 µM)
C[C@H](O/N=C(\C(=O)N[C@@H]1C(=O)N(S(=O)(=O)O)[C@@H]1CNC(=O)NCc1cc(=O)c(O)cn1O)c1nc(N)sc1Cl)C(=O)O [Example 34, (2S)-2-({[(1Z)-1-(2-amino-5-chloro-1,3-thiazol-4-yl)-2-({(2R,3S)-2-[({[(1,5-dihydroxy-4-oxo-1,4-dihydropyridin-2-yl)methyl]carbamoyl}amino)methyl]-4-oxo-1-sulfoazetidin-3-yl}amino)-2-oxoethylidene]amino}oxy)propanoic acid]	0.125 (≈ 0.191 µM)	0.5 (≈ 0.766 µM)	0.25 (≈ 0.383 µM)
CC(C)(O/N=C(\C(=O)N[C@@H]1C(=O)N(S(=O)(=O)O)[C@@H]1CNC(=O)NCc1cc(=O)c(O)cn1O)c1csc(N)n1)C(=O)O [Example 4, 2-({[(1Z)-1-(2-amino-1,3-thiazol-4-yl)-2-({(2R,3S)-2-[({[(1,5-dihydroxy-4-oxo-1,4-dihydropyridin-2-yl)methyl]carbamoyl}amino)methyl]-4-oxo-1-sulfoazetidin-3-yl}amino)-2-oxoethylidene]amino}oxy)-2-methylpropanoic acid]	0.125 (≈ 0.198 µM)	0.125 (≈ 0.198 µM)	0.5 (≈ 0.79 µM)
CC(C)(O/N=C(\C(=O)N[C@@H]1C(=O)N(S(=O)(=O)O)[C@@H]1CNC(=O)c1ccnc(-c2cc(=O)c(O)cn2O)n1)c1csc(N)n1)C(=O)O [Example 23, 2-({[(1Z)-1-(2-amino-1,3-thiazol-4-yl)-2-({(2R,3S)-2-[({[2-(1,5-dihydroxy-4-oxo-1,4-dihydropyridin-2-yl)pyrimidin-4-yl]carbonyl}amino)methyl]-4-oxo-1-sulfoazetidin-3-yl}amino)-2-oxoethylidene]amino}oxy)-2-methylpropanoic acid]	1 (≈ 1.47 µM)	0.25 (≈ 0.367 µM)	0.25 (≈ 0.367 µM)
CC(C)(O/N=C(\C(=O)N[C@@H]1C(=O)N(S(=O)(=O)O)[C@@H]1COC(=O)c1ccnc(-c2cc(=O)c(O)c[nH]2)n1)c1csc(N)n1)C(=O)O [Example 21, 2-({[(1Z)-1-(2-amino-1,3-thiazol-4-yl)-2-({(2S,3S)-2-[({[2-(5-hydroxy-4-oxo-1,4-dihydropyridin-2-yl)pyrimidin-4-yl]carbonyl}oxy)methyl]-4-oxo-1-sulfoazetidin-3-yl}amino)-2-oxoethylidene]amino}oxy)-2-methylpropanoic acid]	8 (≈ 12 µM)	64 (≈ 96 µM)	> 64
CC(C)(O/N=C(\C(=O)N[C@@H]1C(=O)N(S(=O)(=O)O)[C@@H]1COC(=O)CNC(=O)c1cc(=O)c(O)cn1O)c1csc(N)n1)C(=O)O [Example 7, 2-({[(1Z)-1-(2-amino-1,3-thiazol-4-yl)-2-({(2S,3S)-2-[({N-[(1,5-dihydroxy-4-oxo-1,4-dihydropyridin-2-yl)carbonyl]glycyl}oxy)methyl]-4-oxo-1-sulfoazetidin-3-yl}amino)-2-oxoethylidene]amino}oxy)-2-methylpropanoic acid]	0.125 (≈ 0.189 µM)	8 (≈ 12.1 µM)	0.5 (≈ 0.756 µM)
CC(C)(O/N=C(\C(=O)N[C@@H]1C(=O)N(S(=O)(=O)O)[C@@H]1COC(=O)CNC(=O)c1cc(O)c(O)cn1)c1csc(N)n1)C(=O)O [Example 6, 2-({[(1Z)-1-(2-amino-1,3-thiazol-4-yl)-2-({(2S,3S)-2-[({N-[(4,5-dihydroxypyridin-2-yl)carbonyl]glycyl}oxy)methyl]-4-oxo-1-sulfoazetidin-3-yl}amino)-2-oxoethylidene]amino}oxy)-2-methylpropanoic acid]		8 (≈ 12.4 µM)	1 (≈ 1.55 µM)
